This is an account of results in ChEMBL document CHEMBL1201862, “PubChem BioAssay data set” (2004).

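1) Cells in 96-well plates. 2) Compound, 48 h, 5 concentrations. 3) Linear interpolation between surrounding doses. 4) Unreached endpoint = highest concentration. GI50: concentration for 50% inhibition of growth.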 The source made the active and inactive calls. Rule as the data show it: active = GI50 up to about 1.1 µM and inactive = higher. A value given as a limit tells only on which side of the number the result lay.

Assay in all cases: DTP human tumour cell line panel, 48 h
Test [1] relates to HCT-116.
The subject of test [2] is CAKI-1.
Test [3] has as its system NCI-H460.
In test [4] the test system is SN12C.
Test [5] concerns T47D.
Test [6] deals with OVCAR-8.
For test [7], the system named is PC-3.
In test [8] the test system is Hs-578T.
The subject of test [9] is OVCAR-5.
The subject of test [10] is MDA-MB-435.
The subject of test [11] is TK-10.
Test [12] deals with RXF 393.
The test system of test [13] is UACC-257.
In test [14] the test system is MDA-MB-231.
Test [15] deals with A549.
In test [16] the test system is RPMI-8226.
Test [17] has as its system NCI/ADR-RES.
Test [18] relates to HT-29.
The subject of test [19] is 786-0.
In test [20] the test system is HL-60.

`CN(C)c1cccc(-c2cc(=S)c3cc4c(cc3[nH]2)OCO4)c1`: the GI50 – broadly, the concentration at which growth is held to half of that of the control – in test [1] is 5.74 µM (inactive); in test [2], 11.1 µM (inactive); in test [3], 4.59 µM (inactive); in [4], 16.4 µM (inactive); in [5], 6.87 µM (inactive); in test [6], 6.43 µM (inactive). Besides, the GI50 was 3.61 µM (inactive) in test [7]; 4.28 µM (inactive) in test [8]; > 64.9 µM (inactive) in [9]; 1.76 µM (inactive) in test [10]; > 77.4 µM (inactive) in test [11]; 4.83 µM (inactive) in test [12]. In addition, the GI50 was 9.25 µM (inactive) in test [13]; 31.9 µM (inactive) in test [14]; 4.85 µM (inactive) in test [15]; > 21.1 µM (inactive) in test [16]; 3.94 µM (inactive) in test [17]; 6.24 µM (inactive) in test [18]. Further, in test [19], the GI50 is 6.07 µM (inactive).
Take `CS(=O)(=O)OCC1OC(n2ccc(NC(=O)c3ccccc3)nc2=O)CC1OS(C)(=O)=O` (stereo not given): the GI50 in test [1], in test [20], in [2], in test [3], in test [4] and in test [5] was > 100 µM (inactive) each time. For the same compound, the GI50 in test [6], in [7], in test [8], in test [9], in [10] and in [11] was > 100 µM (inactive) throughout. The GI50 in test [13], in test [14], in [15], in test [16], in [17] and in [18] was > 100 µM (inactive) each time. For the same compound, the GI50 in test [19] is > 100 µM (inactive).
With `C(/C=N/N=C1NCCCCN1)=N\N=C1NCCCCN1`, the GI50 in test [1], in test [2], in [3], in [4], in test [5] and in test [6] was > 100 µM (inactive) throughout. For the same compound, the GI50 in [7], in test [8], in test [9], in test [10], in test [11] and in [13] was > 100 µM (inactive) in each case. Besides, the GI50 in test [14], in test [15], in test [17], in test [18] and in test [19] was > 100 µM (inactive) each time.
On to `O=c1cc(-c2ccc(O)cc2)n(C2CC2)c2ccccc12`, for which the GI50 is 2.75 µM (inactive) in test [1]; 19.7 µM (inactive) in [20]; 4.42 µM (inactive) in [2]; 3.76 µM (inactive) in test [3]; 6.01 µM (inactive) in [4]; 3.96 µM (inactive) in test [5]. Besides, the GI50 in [6] is 5.31 µM (inactive); in test [7], 9.44 µM (inactive); in test [8], 5.41 µM (inactive); in test [9], 3.64 µM (inactive); in [10], 4.83 µM (inactive); in test [12] it was 2.82 µM (inactive). Further, the GI50 was 10.2 µM (inactive) in [13]; 8.47 µM (inactive) in test [14]; 4.52 µM (inactive) in test [15]; 3.35 µM (inactive) in [16]; 11.9 µM (inactive) in [17]; 1.57 µM (inactive) in test [18]. Moreover, in test [19], the GI50 was 4.06 µM (inactive).
With `c1ccc(Nc2nn3c(CCCCCCCCc4nnc5sc(Nc6ccccc6)nn45)nnc3s2)cc1`, the GI50 in test [1] was 24.3 µM (inactive); in test [2] it was 29 µM (inactive); in test [3], 32.4 µM (inactive); in test [4], 49.1 µM (inactive); in [5], 13.2 µM (inactive); in test [6], 22 µM (inactive). Moreover, the GI50 is 31 µM (inactive) in [7]; 31.2 µM (inactive) in test [8]; 36.9 µM (inactive) in [9]; 25.4 µM (inactive) in [10]; 28.1 µM (inactive) in [11]; 41.6 µM (inactive) in test [12]. Moreover, the GI50 in test [13] was 34.2 µM (inactive); in test [14], 28.7 µM (inactive); in test [15] it was 21.6 µM (inactive); in [16] it was 22.3 µM (inactive); in test [17], 26.6 µM (inactive); in [18], 21.9 µM (inactive). In test [19], the GI50 was 23.4 µM (inactive).
Regarding `CC(=O)O[C@@H]1CC2[C@@H](CCC3Cc4nc5c(nc4C[C@@]32C)CC2CC[C@@H]3C(CC[C@@]4(C)C3CC[C@@H]4C(C)CCCC(C)C)[C@@]2(C)C5)C2C[C@@H]3OC4(CCC(C)CO4)C(C)[C@@H]3[C@]21C` (stereo not given in full), the GI50 in test [1], in test [20], in [3], in [4], in test [5] and in test [6] was > 100 µM (inactive) in each case. In addition, the GI50 in [7] is > 100 µM (inactive); in [8], 21.1 µM (inactive); in test [9], > 100 µM (inactive); in [10] it was > 100 µM (inactive); in test [11], 33.1 µM (inactive); in [12] it was 19.9 µM (inactive). Further, the GI50 in test [13] is > 100 µM (inactive); in [14], > 100 µM (inactive); in test [15], > 100 µM (inactive); in test [16], > 100 µM (inactive); in test [17], 30.3 µM (inactive); in test [18] it was > 100 µM (inactive). Further, in [19], the GI50 is 53.7 µM (inactive).
Regarding `c1cc(C[S+]2CCCC2)oc1C[S+]1CCCC1`, the GI50 in test [1], in test [2], in [3], in test [4], in [5] and in test [6] was > 100 µM (inactive) each time. Moreover, the GI50 in test [7], in test [8], in [10], in [11], in [12] and in [13] was > 100 µM (inactive) each time. The GI50 in test [14], in test [15], in test [17], in test [18] and in test [19] was > 100 µM (inactive) in each case.
With `CN(C)c1ccc(C2CC(c3ccc4ccccc4c3O)=NN2)cc1` (stereo not given), the GI50 in test [1] is 31.7 µM (inactive); in test [2] it was 40.6 µM (inactive); in test [3], 32.2 µM (inactive); in test [4] it was 33.2 µM (inactive); in [5] it was 38.8 µM (inactive); in test [6] it was 32.4 µM (inactive). Besides, the GI50 in test [7] was 32 µM (inactive); in test [8] it was 37.4 µM (inactive); in test [9], 80.7 µM (inactive); in [10], 30.4 µM (inactive); in test [11], 56.4 µM (inactive); in test [12], 36.1 µM (inactive). Also, the GI50 in [13] is 38.8 µM (inactive); in test [14], 50 µM (inactive); in test [15], 31 µM (inactive); in test [16], 29.6 µM (inactive); in test [17] it was 30.3 µM (inactive); in test [18], 34.4 µM (inactive). In addition, the GI50 in [19] is 21.9 µM (inactive).
Turning to `O=C1c2ccccc2-c2c1c1ccccc1c(=O)n2Cc1ccco1`, the GI50 in [1], in test [20], in test [2], in test [4], in test [5] and in test [6] was > 100 µM (inactive) throughout. Besides, the GI50 in test [7] was > 100 µM (inactive); in [8], 54.6 µM (inactive); in test [9] it was > 100 µM (inactive); in test [10], > 100 µM (inactive); in test [11], > 100 µM (inactive); in test [13], > 100 µM (inactive). Besides, the GI50 in [14], in [15], in [16], in test [17], in test [18] and in test [19] was > 100 µM (inactive) in each case.
On to `COc1ccc(CNc2nc(NCc3ccc(OC)cc3)nc(NC3CCCCC3)n2)cc1`, for which the GI50 in test [1] is 3.12 µM (inactive); in test [20], 4.34 µM (inactive); in test [2], 1.07 µM (active); in test [3] it was 2.7 µM (inactive); in test [4], 3.07 µM (inactive); in [5] it was 3.51 µM (inactive). The GI50 in test [6] is 2.6 µM (inactive); in test [7] it was 3.21 µM (inactive); in [8], 1.77 µM (inactive); in test [9], 4.99 µM (inactive); in [10], 0.472 µM (active); in test [11], 0.975 µM (active). Further, the GI50 in test [13] was 53.8 µM (inactive); in [14] it was 2.48 µM (inactive); in test [15], 2 µM (inactive); in [16] it was 3.21 µM (inactive); in test [17], 1.8 µM (inactive); in test [18], 3.46 µM (inactive). In test [19], the GI50 was 2.81 µM (inactive).
